Measurements: US5045566A, “Novel imidate insecticides” (ICI Americas Inc., priority 1989, dated 1991)

Legend:
Format in all cases: in vivo
[1] = system: Housefly [Musca domestica]; assay: Housefly contact mortality in dishes (HF), 48 hours; conditions: μg of test compound per 25 female flies
Procedure, shortened: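 LC50, as μg compound per 25 female flies, comes from dosage-mortality curves with doses from 100 μg downward. Residues were made by evaporating acetone plus 0.01% peanut oil in dishes, onto which 1-2-day-old females were caged; deaths were counted after 48 hours.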

[2] = system: Black Bean Aphid [Aphis fabae (Scop.)]; assay: Black bean aphid spray test on nasturtium (BBA), 48 hours; conditions: percent of test compound in sprayed solution
Procedure, shortened: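 LC50, given as percent test compound in the sprayed liquid, was calculated from dosage-mortality curves using concentrations from 0.05% downward. Sprays in 50:50 acetone-water went to runoff on ~5 cm nasturtiums carrying 25-50 aphids of mixed ages, one day after infestation. Deaths were counted 48 h later under greenhouse conditions.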

[3] = system: Tobacco Budworm [Heliothis virescens (Fabricius)] eggs; assay: Tobacco budworm eggs (TBW-E); conditions: percent in solution; 2-day old eggs
Procedure, shortened: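 Step 1: dip 2-day old egg patches in acetone test solutions (top concentration 0.1%). Step 2: hold in dishes with rearing medium at 78° F. Step 3: record mortality after control hatch and feeding.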

[4] = system: Cabbage Looper [Trichoplusia ni (Hubner)]; assay: Cabbage looper leaf dip (CL), 3-5 days; conditions: percent in solution, second-instar larvae
Procedure, shortened: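 Squash cotyledons dipped in test solution (acetone-water 50-50, ≤0.1%), dried, offered to 5 second-instar larvae; mortality after 3-5 days gives LC50.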

[5] = system: Aster Leafhopper [Macrosteles fascifrens (Stal)]; assay: Aster leafhopper on dipped oat seedlings (LH), 48 hours; conditions: percent in solution, adults/nymphs
Procedure, shortened: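 LC50 values, given as percent of test compound in the dip solution, were derived from dosage-mortality curves over concentrations from 0.05% downward. Mortality was counted 48 hours after ten leafhopper adults/nymphs were enclosed on treated seedlings. The seedlings were oats, about 10 cm tall, briefly dipped in 50-50 acetone-water.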

[6] = system: Maize weevil [Sitophilus zeamais (Motschulsky)]; assay: Maize weevil on dipped corn seeds (MW), 48 hours; conditions: percent in solution, adult weevils
Procedure, shortened: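 LC50, given as percent of compound in dipping solution, comes from dosage-mortality curves over concentrations descending from 0.01%. Four corn seeds soaked 2-3 s in 50:50 acetone:water solution were dried and held with 10 adult weevils, about 25° C, mortality read after 48 h.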

CC(C)(F)C(=Nc1ccc(F)c(Cl)c1)OCc1cc(Oc2ccc(F)cc2)ccc1F [Compound 316]
LC50 HF [1]: 100 µg | LC50 BBA [2]: > 0.05% | LC50 TBW E (eggs) [3]: > 0.1% | LC50 CL [4]: 0.0015% | LC50 LH [5]: > 0.05% | LC50 MW [6]: > 0.01%

CC(C)C(=Nc1cccc(C(C)(C)C)c1)OCc1cccc(Oc2ccc(F)cc2)c1 [Compound 350]
LC50 HF [1]: > 100 µg | LC50 BBA [2]: > 0.05% | LC50 TBW E (eggs) [3]: > 0.1% | LC50 CL [4]: 0.0045% | LC50 LH [5]: > 0.05% | LC50 MW [6]: > 0.01%

CC(C)C(=Nc1ccc(Br)cc1F)OCc1cccc(Oc2ccc(F)cc2)c1 [Compound 351]
LC50 HF [1]: 26 µg | LC50 BBA [2]: 0.001% | LC50 TBW E (eggs) [3]: > 0.1% | LC50 CL [4]: 0.0007% | LC50 LH [5]: > 0.05% | LC50 MW [6]: > 0.01%

CSc1ccc(N=C(OCc2ccc(F)c(Oc3ccccc3)c2)C(C)C)cc1 [Compound 353]
LC50 HF [1]: < 100 µg | LC50 BBA [2]: 0.001% | LC50 TBW E (eggs) [3]: > 0.1% | LC50 CL [4]: > 0.1% | LC50 LH [5]: > 0.05% | LC50 MW [6]: > 0.01%

Cc1ccc(N=C(OCc2ccc(F)c(Oc3ccccc3)c2)C(C)C)cc1F [Compound 354]
LC50 HF [1]: < 100 µg | LC50 BBA [2]: 0.001% | LC50 TBW E (eggs) [3]: 0.018% | LC50 CL [4]: > 0.1% | LC50 LH [5]: < 0.05% | LC50 MW [6]: 0.0068%

Cc1ccc(N=C(OCc2ccc(F)c(Oc3ccc(F)cc3)c2)C(C)C)cc1F [Compound 355]
LC50 HF [1]: < 100 µg | LC50 BBA [2]: 0.0006% | LC50 TBW E (eggs) [3]: > 0.1% | LC50 CL [4]: > 0.1% | LC50 LH [5]: < 0.05% | LC50 MW [6]: > 0.01%

Cc1ccc(N=C(OCc2ccc(F)c(Oc3ccccc3)c2)C(C)C)cc1Cl [Compound 356]
LC50 HF [1]: < 100 µg | LC50 BBA [2]: 0.001% | LC50 TBW E (eggs) [3]: 0.025% | LC50 CL [4]: > 0.1% | LC50 LH [5]: < 0.05% | LC50 MW [6]: > 0.01%

Cc1ccc(N=C(OCc2ccc(F)c(Oc3ccc(F)cc3)c2)C(C)C)cc1Cl [Compound 357]
LC50 HF [1]: < 100 µg | LC50 BBA [2]: 0.0003% | LC50 TBW E (eggs) [3]: > 0.1% | LC50 CL [4]: > 0.1% | LC50 LH [5]: < 0.05% | LC50 MW [6]: 0.01%

Cc1cc(N=C(OCc2ccc(F)c(Oc3ccccc3)c2)C(C)C)ccc1Br [Compound 358]
LC50 HF [1]: < 100 µg | LC50 BBA [2]: 0.0003% | LC50 TBW E (eggs) [3]: > 0.1% | LC50 CL [4]: > 0.1% | LC50 LH [5]: < 0.05% | LC50 MW [6]: > 0.01%

Cc1cc(N=C(OCc2ccc(F)c(Oc3ccc(F)cc3)c2)C(C)C)ccc1Br [Compound 359]
LC50 HF [1]: < 100 µg | LC50 BBA [2]: 0.0006% | LC50 TBW E (eggs) [3]: 0.023% | LC50 CL [4]: > 0.1% | LC50 LH [5]: 0.05% | LC50 MW [6]: > 0.01%

CCc1ccc(N=C(OCc2ccc(F)c(Oc3ccccc3)c2)C(C)C)cc1 [Compound 360]
LC50 HF [1]: < 100 µg | LC50 BBA [2]: 0.0006% | LC50 TBW E (eggs) [3]: > 0.1% | LC50 CL [4]: 0.006% | LC50 LH [5]: < 0.05% | LC50 MW [6]: > 0.01%

CCc1ccc(N=C(OCc2ccc(F)c(Oc3ccc(F)cc3)c2)C(C)C)cc1 [Compound 361]
LC50 HF [1]: < 100 µg | LC50 BBA [2]: 0.0003% | LC50 TBW E (eggs) [3]: 0.04% | LC50 CL [4]: 0.001% | LC50 LH [5]: < 0.05% | LC50 MW [6]: > 0.01%

CSc1cccc(N=C(OCc2ccc(F)c(Oc3ccccc3)c2)C(C)C)c1 [Compound 362]
LC50 HF [1]: < 100 µg | LC50 BBA [2]: 0.005% | LC50 TBW E (eggs) [3]: > 0.1% | LC50 CL [4]: > 0.1% | LC50 LH [5]: > 0.05% | LC50 MW [6]: > 0.01%

COc1ccc(N=C(OCc2ccc(F)c(Oc3ccc(F)cc3)c2)C(C)C)cc1OC [Compound 363]
LC50 HF [1]: < 100 µg | LC50 BBA [2]: 0.005% | LC50 TBW E (eggs) [3]: > 0.1% | LC50 CL [4]: > 0.1% | LC50 LH [5]: > 0.05% | LC50 MW [6]: > 0.01%

CC(C)C(=Nc1ccc(Br)c(C(F)(F)F)c1)OCc1ccc(F)c(Oc2ccc(F)cc2)c1 [Compound 364]
LC50 HF [1]: < 100 µg | LC50 BBA [2]: 0.001% | LC50 TBW E (eggs) [3]: 0.025% | LC50 CL [4]: 0.00045% | LC50 LH [5]: < 0.05% | LC50 MW [6]: > 0.01%

CC(C)C(=Nc1ccc(C(F)(F)F)cc1)OCc1cccc(Oc2ccc(Cl)cc2)c1 [Compound 365]
LC50 HF [1]: > 100 µg | LC50 BBA [2]: 0.003% | LC50 TBW E (eggs) [3]: 0.038% | LC50 CL [4]: 0.00025% | LC50 LH [5]: < 0.05% | LC50 MW [6]: > 0.01%

CC(C)C(=Nc1ccc2c(c1)OCO2)OCc1ccc(F)c(Oc2ccc(Cl)cc2)c1 [Compound 366]
LC50 HF [1]: < 100 µg | LC50 BBA [2]: 0.0006% | LC50 TBW E (eggs) [3]: 0.012% | LC50 CL [4]: 0.0007% | LC50 LH [5]: 0.05% | LC50 MW [6]: > 0.01%

CC(C)C(=Nc1ccc2c(c1)OCO2)OCc1cccc(Oc2ccc(C(C)(C)C)cc2)c1 [Compound 367]
LC50 HF [1]: > 100 µg | LC50 BBA [2]: > 0.05% | LC50 TBW E (eggs) [3]: > 0.1% | LC50 CL [4]: < 0.1% | LC50 LH [5]: > 0.05% | LC50 MW [6]: > 0.01%

CC(C)C(=Nc1ccc(F)cc1)OCCc1cccc(Oc2ccccc2)c1 [Compound 456]
LC50 HF [1]: > 100 µg | LC50 BBA [2]: 0.01% | LC50 TBW E (eggs) [3]: > 0.05% | LC50 CL [4]: 0.017% | LC50 LH [5]: > 0.05% | LC50 MW [6]: > 0.01%

CC(C)C(=Nc1ccc(F)c(Cl)c1)OCc1ccc(OCc2ccccc2)cc1 [Compound 475]
LC50 HF [1]: > 100 µg | LC50 BBA [2]: > 0.05% | LC50 TBW E (eggs) [3]: > 0.1% | LC50 CL [4]: 0.008% | LC50 LH [5]: > 0.05% | LC50 MW [6]: > 0.01%
